Measurements from US5523299A, “5-(2-oxyphenyl)-pyrrole derivatives as dopamine D3 receptor antagonists” (SmithKline Beecham PLC, priority 1992, dated 1996).
Where a name gives a salt, the structure may show the parent alone.

Target: human D3 dopamine receptors (Homo sapiens, UniProt P35462)
Assay: [125I] iodosulpride displacement binding to cloned dopamine receptors expressed in CHO cells
Conditions: displacement of 0.1 nM [125I] iodosulpride, cloned receptor in CHO cell membranes, 30 min at 37° C.
Description: The inhibition constants (Ki) of test compounds for displacement of [^125 I] iodosulpride binding to human D2 and D3 dopamine receptors expressed in CHO cells have been determined. […] Cultures were grown as monolayers or in suspension in standard cell culture media. Cells were recovered by scraping (from monolayers) or by centrifugation (from suspension cultures), and were washed two or three times by suspension in phosphate buffered saline followed by collection by centrifugation. Cell pellets were stored frozen at -40° C. Crude cell membranes were prepared by homogenisation followed by high-speed centrifugation, and characterisation of cloned receptors achieved by radioligand binding.
Cell pellets were gently thawed at room temperature, and resuspended in about 20 volumes of ice-cold 50 mM Tris salts (pH 7.4 @37° C.), 20 mM EDTA, 0.2M sucrose. The suspension was homogenised using an Ultra-Turrax at full speed for 15 sec. The homogenate was centrifuged at 18,000 r.p.m for 20 min at 4° C. in a Sorvall RC5C centrifuge. The membrane pellet was resuspended in ice-cold 50 mM Tris salts (pH 7.4 @37° C.), using an Ultra-Turrax, and recentrifuged at 18,000 r.p.m for 15 min at 4° C. in a Sorvall RC5C. The membranes were washed two more times with ice-cold 50 mM Tris salts (pH 7.4 @37° C.). The final pellet was resuspended in 50 mM Tris salts (pH 7.4 @37° C.), and the protein content determined using bovine serum albumin as a standard (Bradford, M. M. (1976) Anal. Biochem. 72, 248-254).
Crude cell membranes were incubated with 0.1 nM [^125 I] iodosulpride (~2000 Ci/mmol; Amersham, U.K.), and the test compound in a buffer containing 50 mM Tris salts (pH 7.4 @37° C.), 120 mM NaCl, 5 mM KCl, 2 mM CaCl2, 1 mM MgCl2, 0.1% (w/v) bovine serum albumin, in a total volume of 1 ml for 30 min at 37° C. Following incubation, samples were filtered using a Brandel Cell Harvester, and washed three times with ice-cold 50 mM Tris salts (pH 7.4 @37° C.), 120 mM NaCl5 mM KCl2 mM CaCl2, 1 mM MgCl2. The radioactivity on the filters was measured using a Cobra gamma counter (Canberra Packard). Non-specific binding was defined as the radioligand binding remaining after incubation in the presence of 100 μM iodosulpride. For competition curves, 14 concentrations (half-log dilutions) of competing cold drug were used.
Competition curves were analysed simultaneously whenever possible using non-linear least-squares fitting procedures, capable of fitting one, two or three site models.

Chain of human D3 dopamine receptors (P35462 whole entry): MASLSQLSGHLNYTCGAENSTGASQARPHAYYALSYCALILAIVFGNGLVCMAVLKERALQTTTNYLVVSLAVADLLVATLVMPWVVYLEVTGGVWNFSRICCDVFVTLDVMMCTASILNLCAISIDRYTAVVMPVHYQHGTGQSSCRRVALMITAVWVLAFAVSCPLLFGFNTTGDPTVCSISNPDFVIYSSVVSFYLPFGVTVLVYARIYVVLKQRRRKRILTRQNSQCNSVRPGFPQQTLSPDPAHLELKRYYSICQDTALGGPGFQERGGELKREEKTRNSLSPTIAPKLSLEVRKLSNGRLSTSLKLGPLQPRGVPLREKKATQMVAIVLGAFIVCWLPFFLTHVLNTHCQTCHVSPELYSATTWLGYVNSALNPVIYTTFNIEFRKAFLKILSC

IC50 [nM] | Structure (SMILES)
0.2 to 26 | CCS(=O)(=O)c1ccc(OC)c(-c2ccc(C(C)N3CCCCC3)[nH]2)c1 (single isomer, unassigned; slower eluting) [Example 49, 2-(5-Ethylsulphonyl-2-methoxyphenyl)-5-[1-(1-piperidinyl)-ethyl)-1H-pyrrole, slower eluting enantiomer]
0.2 to 26 | COc1cc(Br)cc(-c2ccc(C(C)N3CCCCC3)[nH]2)c1OC (stereo not shown) [Example 36, 2-(2,3-Dimethoxy-5-bromophenyl)-5-[1-(1-piperidinyl)ethyl]-1H-pyrrole hydrochloride]

Continued, molecule first:

Structure (SMILES) | IC50 [nM]
COc1c(Br)cc(Br)cc1-c1ccc(CN2CCCCC2)[nH]1 [Example 1, 2-(3,5-Dibromo-2-methoxyphenyl)-5-(1-piperidinylmethyl)-1H-pyrrole hydrochloride] | 0.2 to 26
CCS(=O)(=O)c1ccc(OC)c(-c2ccc(CN3CCCCC3)[nH]2)c1 [Example 2, 2-(5-Ethylsulphonyl-2-methoxyphenyl)-5-(1-piperidinylmethyl)-1H-pyrrole] | 0.2 to 26
CCS(=O)(=O)c1ccc(OC)c(-c2ccc(C(C)N3CCCCC3)[nH]2)c1 (stereo not shown) [Example 16, 2-(5-Ethylsulphonyl-2-methoxyphenyl)-5-[1-(1-piperidinyl)-ethyl)-1H-pyrrolehydrochloride] | 0.2 to 26
CCN(Cc1ccccc1)Cc1ccc(-c2cc(S(=O)(=O)CC)ccc2OC)[nH]1 [Example 27, 2-(5-Ethylsulphonyl-2-methoxyphenyl)-5-(N-benzyl-N-ethyl)-aminomethyl-1H-pyrrole hydrochloride] | 0.2 to 26
CCN(Cc1ccccc1)Cc1ccc(-c2cc(S(=O)(=O)CC)cc(Br)c2OC)[nH]1 [Example 30, 2-(3-Bromo-5-ethylsulphonyl-2-methoxyphenyl)-5-(N-benzyl-N-ethyl)aminomethyl-1H-pyrrole hydrochloride] | 0.2 to 26
